# Laboratory results reported in patent publication US11021481B2, “Substituted isoindolin-1-ones and 2,3-dihydro-1h-pyrrolo[3,4-c]pyridin-1-ones as HPK1 antagonists” (Nimbus Saturn, Inc., priority 2019, dated 2021).
# Structures can show the parent of a compound that is named as a salt.
# Molecular target: HPK1 (Homo sapiens (Human), UniProt Q92918)
# Test: HPK1 biochemical enzyme assay (microfluidic mobility shift assay)
# Conditions: 1.5 nM HPK1, ATP 1 mM final, 30 min preincubation, 60 min at RT, Caliper EZ Reader; read-out: HPK1 1000UMATP caliper IC50
# How it was run: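 Mobility shift readout of HPK1 activity after a 60 min RT reaction with 1 mM ATP, 1 μM substrate and 5 mM MgCl2. Enzyme/substrate mix was first exposed to compounds for 30 min, using ten-point curves topping at 3 μM final.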
# HPK1, sequence (Q92918 whole entry): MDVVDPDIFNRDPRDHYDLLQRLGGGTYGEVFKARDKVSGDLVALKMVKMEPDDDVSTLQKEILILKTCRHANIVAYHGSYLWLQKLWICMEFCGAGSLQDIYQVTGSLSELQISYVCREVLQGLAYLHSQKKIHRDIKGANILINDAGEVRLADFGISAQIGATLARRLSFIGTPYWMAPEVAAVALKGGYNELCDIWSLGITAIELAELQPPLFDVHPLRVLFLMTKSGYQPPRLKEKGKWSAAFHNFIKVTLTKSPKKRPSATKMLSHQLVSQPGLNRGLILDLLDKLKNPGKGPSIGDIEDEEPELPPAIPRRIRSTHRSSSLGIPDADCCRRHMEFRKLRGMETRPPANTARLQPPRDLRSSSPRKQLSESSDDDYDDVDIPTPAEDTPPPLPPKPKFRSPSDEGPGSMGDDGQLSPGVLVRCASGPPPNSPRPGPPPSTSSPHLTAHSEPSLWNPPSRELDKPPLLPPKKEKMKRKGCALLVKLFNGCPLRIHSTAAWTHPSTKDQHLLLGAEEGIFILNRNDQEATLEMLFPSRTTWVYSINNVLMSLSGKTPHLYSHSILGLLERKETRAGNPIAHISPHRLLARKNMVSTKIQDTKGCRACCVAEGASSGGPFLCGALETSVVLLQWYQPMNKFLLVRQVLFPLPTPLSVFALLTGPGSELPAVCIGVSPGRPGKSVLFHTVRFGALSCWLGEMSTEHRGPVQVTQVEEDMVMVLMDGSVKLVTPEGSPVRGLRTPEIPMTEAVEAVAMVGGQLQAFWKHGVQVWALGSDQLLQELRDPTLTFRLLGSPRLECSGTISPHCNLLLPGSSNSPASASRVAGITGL
row,Compound,IC50 [nM]
1,"CCNC(=O)c1ccc(Nc2ccc(-c3cnc4cc(F)ccn34)c3c2C(=O)NC3)nc1CN(C)C [I-791, 2-((dimethylamino)-methyl)-N-ethyl-6-((7-(7-fluoroimidazo [1,2-a]pyridin-3-yl)-3-oxoisoindolin-4-yl)amino)nico-tinamide]",< 100
2,"7-[[5-(4-hydroxy-1- piperidyl)-2-pyridyl] amino]-4-imidazo[1,2- a]pyridin-3-yl- isoindolin-1-one [I-125]",< 100
3,"Cc1ccn2c(-c3ccc(Nc4ccc([C@H]5CCOC5)cn4)c4c3CNC4=O)cnc2c1 [I-191, (R)-4-(7-methylimidazo [1,2-a]pyridin-3-yl)-7-((5-(tetrahydro-furan-3-yl)pyridin-2-yl)amino)isoin-dolin-1-one]",< 100
4,"O=C1NCc2c(-c3cnc4cc(F)ccn34)ccc(Nc3ccc(C4CCOC4)c(CN4CCOCC4)n3)c21 (stereo in doubt) [I-721, (R)-4-(7-fluoroimidazo [1,2-a]pyridin-3-yl)-7-((6-(morpliolinomethyl)-5-(tetrahydrofuran-3-yl)pyridin-2-yl)amino)isoin-dolin-1-one]",< 100
5,"O=C1NCc2c(-c3cnc4cc(CO)ccn34)ccc(Nc3ccc(N4CCOCC4)cn3)c21 [I-196, 4-[7-(hydroxymeth-yl)imidazo[1,2-a]pyridin-3-yl]-7-[(5-morpholino-2-pyridyl)amino] isoindolin-1-one]",< 100
6,"Cn1ccc2c(-c3ncc(Nc4ccc([C@@H]5CCOC5)c(CN5CC[C@H](O)C5)n4)c4c3CNC4=O)ccnc21 [I-811, 7-((6-(((S)-3-hydroxypyrroli-din-1-yl)methyl)-5-((S)-THF-3-yl)pyridin-2-yl)amino)-4-(1-methyl-1H-pyrrolo[2,3-b]pyridin-4-yl)-2,3-dihydro-1H-pyrrolo[3,4-c]pyridin-1-one]",< 100
7,CN(C)CC1(F)CCCN(c2ccc(Nc3ccc(-c4cnc5cc(F)ccn45)c4c3C(=O)NC4)nc2)C1 (stereo not drawn) [I-503],< 100
8,"Cc1ccn2c(-c3ccc(Nc4ccc(N5CCO[C@@H](C(C)(C)O)C5)cn4)c4c3CNC4=O)cnc2c1F [I-487, 4-(8-fluoro-7-methyl-imidazo[1,2-a]pyridin-3-yl)-7-[[5-[(2R)-2-(1-hydroxy-1-methyl-ethyl)morpholin-4-yl]-2-pyridyl]amino]isoindolin-1-one]",< 100
9,"CCNC(=O)c1ccn2c(-c3ccc(Nc4ccc(N5CCC(O)CC5)cn4)c4c3CNC4=O)cnc2c1 [I-195, N-ethyl-3-[7-[[5-(4-hydroxy-1-piperidyl)-2-pyridyl]amino]-1-oxo-isoindolin-4-yl]imidazo[1,2-a]pyridine-7-carboxamide]",100 to 1000
10,"CC(C)(O)[C@@H]1CN(c2ccc(Nc3cnc(-c4cnc5c(F)cccn45)c4c3C(=O)NC4)nc2)CCO1 [I-483, 4-(8-fluoroimidazo [1,2-a]pyridin-3-yl)-7-[[5-[(2S)-2-(1-hydroxy-1-methyl-ethyl)morpholin-4-yl]-2-pyridyl]amino]-2,3-dihydropyrrolo [3,4-c]pyridin-1-one]",< 100
11,"O=C1NCc2c(-c3cnc4c(F)cccn34)ncc(Nc3ccc(N4CC[C@H](F)[C@@H](O)C4)cn3)c21 [I-653, 7-((5-((3S.4S)-4-fluoro-3-liydroxy-piperidin-1-yl)pyridin-2-yl)amino)-4-(8-fluoroimidazo [1,2-a]pyridin-3-yl)-2,3-dihydro-1H-pyrrolo[3,4-c]pyridin-1-one]",< 100
12,"CN1CCN(c2ccc(Nc3ccc(-c4cnc5ccccn45)c4c3C(=O)NC4)nc2)CC1 [I-39, 4-(imidazo[1,2-a]pyridin-3-yl)-7-((5-(4-methylpiperazin-1-yl)pyridin-2-yl)amino)isoindolin-1-one]",< 100
13,"CN1CCN(CC2(O)CCN(c3ccc(Nc4ccc(-c5cnc6cnccn56)c5c4C(=O)NC5)nc3)CC2)CC1 [I-412, 7-((5-(4-hydroxy-4-((4-methylpiperazin-1-yl)methyl)piper-idin-1-yl)pyridin-2-yl)amino)-4-(imidazo[1,2-a]pyrazin-3-yl)isoindolin-1-one]",< 100
14,"Cc1ccn2c(-c3ccc(Nc4ccc(N5CCC[C@H](O)C5)cn4)c4c3CNC4=O)cnc2c1 [I-170, 7-[[5-[(3S)-3-hydroxy-1-piperidyl]-2-pyridyl]amino]-4-(7-methylimidazo [1,2-a]pyridin-3-yl)isoindolin-1-one]",< 100
15,"CN1CCN(c2ccc(Nc3ccc(-c4cnn5ccncc45)c4c3C(=O)NC4)nc2)CC1 [I-113, 7-[[5-(4-methylpiperazin-1-yl)-2-pyridyl]amino]-4-pyrazolo[1,5-a]pyrazin-3-yl-isoindolin-1-one]",< 100
16,"Cc1c[nH]c2nccc(-c3ccc(Nc4ccc(N5CCN(C)CC5)cn4)c4c3CNC4=O)c12 [I-42, 7-[[5-(4-methylpiperazin-1-yl)-2-pyridyl]amino]-4-(3-methyl-1H-pyrrolo[2,3-b]pyridin-4-yl)isoindolin-1-one]",< 100
17,"C[C@@H](c1ccc(Nc2ccc(-c3cnc4cc(F)ccn34)c3c2C(=O)NC3)nc1)N1CCOCC1 (single isomer, unassigned) [I-640]",< 100
18,"Cn1ccc2c(-c3c(Cl)cc(Nc4ccc(N5CCC(O)CC5)cn4)c4c3CNC4=O)ccnc21 [I-190, 5-chloro-7-[[5-(4-hydroxy-1-piperidyl)-2-pyridyl]amino]-4-(1-methylpyrrolo[2,3-b]pyridin-4-yl)isoindolin-1-one]",< 100

row,Compound,IC50 [nM]
1,"CN(Cc1nc(Nc2ccc(-c3cnc4cc(F)ccn34)c3c2C(=O)NC3)ccc1[C@@H]1CCOC1)CC(F)F (single isomer, unassigned) [I-749]",< 100
2,"CN1CCN(c2ccc(Nc3ccc(-c4ncnc5c4ccn5C)c4c3C(=O)NC4)nc2)CC1 [I-83, 7-[[5-(4-methylpiperazin-1-yl)-2-pyridyl]amino]-4-(7-methylpyrrolo [2,3-d]pyrimidin-4-yl)isoindolin-1-one]",< 100
3,"Cn1ccc2c(-c3ncc(Nc4ccc(N5CCC[C@@](O)(CN6CCOCC6)C5)cn4)c4c3CNC4=O)ccnc21 (single isomer, unassigned) [I-673]",< 100
4,"CN(C)Cc1nc(Nc2ccc(-c3cnc4cc(F)ccn34)c3c2C(=O)NC3)ccc1N1CCC(C)(O)CC1 [I-535, 7-[[6-[(dimethylamino)-methyl]-5-(4-hydroxy-4-methyl-1-piperidyl)-2-pyridyl]amino]-4-(7-fluoroimidazo [1,2-a]pyridin-3-yl)isoindolin-1-one Formic acid salt]",< 100
5,"O=C1NCc2c(-c3cncn4ccnc34)ncc(Nc3ccc(N4CCC(O)CC4)cn3)c21 [I-632, 7-((5-(4-hydroxy-piperidin-1-yl)pyridin-2-yl)amino)-4-(imidazo[1,2-c]pyrimidin-8-yl)-2,3-dihydro-1H-pyrrolo[3,4-c]pyridin-1-one]",> 1000
6,"O=C1NCc2c(-c3cnc4cc(F)ccn34)ccc(Nc3ccc(N4CCC[C@]5(CNCCO5)C4)cn3)c21 [I-508, (S)-7-((5-(1-oxa-4.8-diazaspiro[5.5]undecan-8-yl)pyridin-2-yl)amino)-4-(7-fluoroimidazo [1,2-a]pyridin-3-yl)isoindolin-1-one]",< 100
7,"Cn1ccc2c(-c3ccc(-n4ccc(N5CCC[C@](C)(O)C5)n4)c4c3CNC4=O)ccnc21 (single isomer, unassigned) [I-306]",> 1000
8,"CN(C[C@@H]1CN(c2ccc(Nc3ccc(-c4cnc5cc(F)ccn45)c4c3C(=O)NC4)nc2)CCO1)C1CC1 [I-494, 7-[[5-[(2R)-2-[[cyclopropyl (methyl)amino]methyl]morph-olin-4-yl]-2-pyridyl]amino]-4-(7-fluoroimidazo [1,2-a]pyridin-yl)isoindolin-1-one]",< 100
9,"CO[C@@H]1CCN(Cc2nc(Nc3ccc(-c4cnc5cc(F)ccn45)c4c3C(=O)NC4)ccc2[C@@H]2CCOC2)C1 [I-781, 4-(7-fluoroimidazo [1,2-a]pyridin-3-yl)-7-((6-(((R)-3-methoxypyrrol-idin-1-yl)methyl)-5-((S)-tetrahydrofuran-3-yl)pyridin-2-yl)amino)isoin-dolin-1-one]",< 100
10,"Cc1ccn2c(-c3ncc(Nc4ccc(N5CCNCC5)cn4)c4c3CNC4=O)cnc2c1 [I-124, 4-(7-methylimidazo [1,2-a]pyridin-3-yl)-7-[(5-piperazin-1-yl-2-pyridyl)amino]-2,3-dihydropyrrolo [3,4-c]pyridin-1-one]",< 100
11,Cc1[nH]c2ncccc2c1-c1ncc(Nc2ccc(N3CCN(C)CC3)cn2)c2c1CNC2=O [I-15],100 to 1000
12,"Cc1cccc2c(-c3ccc(Nc4ccc(N5CCN(C)CC5)cn4)c4c3CNC4=O)cnn12 [I-69, 7-[[5-(4-methylpiperazin-1-yl)-2-pyridyl]amino]-4-(7-methylpyrazolo [1,5-a]pyridin-3-yl)isoindolin-1-one]",< 100
13,"(R)-7-((5-(4-hydroxypiperidin-1-yl)pyridin-2-yl)amino)-3-methyl-4-(1-methyl-1H-pyrrolo[2,3-b]pyridin-4-yl)isoindolin-1-one [I-287]",< 100
14,"4-(7- fluoroimidazo [1,2-a]pyridin- 3-yl)-7-[[5-(4- morpholino-1- piperidyl)-2- pyridyl]amino] isoindolin-1- one [I-488]",< 100
15,CN(C)CCOc1ccn2c(-c3ccc(Nc4ccc(N5CCC(F)C(O)C5)cn4)c4c3CNC4=O)cnc2c1 (stereo not drawn) [I-249],100 to 1000
16,"CN1CCc2c(-c3ccc(Nc4ccc(N5CCNCC5)cn4)c4c3CNC4=O)ccnc21 [I-93, 4-(1-methyl-2,3-dihydropyrrolo [2,3-b]pyridin-4-yl)-7-[(5-piperazin-1-yl-2-pyridyl)amino] isoindolin-1-one]",< 100
17,"CN1CC(c2cccc(Nc3cnc(-c4ccnc5c4ccn5C)c4c3C(=O)NC4)n2)C1 [I-432, 4-(1-methyl-1H-pyrrolo[2,3-b]pyridin-4-yl)-7-((6-(1-methylazetidin-3-yl)pyridin-2-yl)amino)-2,3-dihydro-1H-pyrrolo[3,4-c]pyridin-1-one]",> 1000
18,Cc1cn(C)c2nccc(-c3ccc(Nc4ccc(N5CCNCC5)cn4)c4c3CNC4=O)c12 [I-98],< 100
